{
  "source": "patent US20040142862A1",
  "about": "“Methods and compositions for modulating agonist-induced downregulation of G protein-coupled receptors” (The Regents of the University of California, priority 2002, published 2004)",
  "molecules": {"B1": {"name": "GFP-cGASP1: GFP-tagged version of cGASP1 stably overexpressed in HEK293 cells (protein)", "chain": "SETEEETIFGSWFWDGKEVSEEAGPCCVSKPEDDEEMIVESWFWSRDKAIKETGTVATCESKPENEEGAIVGSWFEAEDEVDNRTDNGSNCGSRTLADEDEAIVGSWFWAGDEAHFESNPSPVFRAICRSTCSVEQEPDPSRRPQSWEEVTVQFKPGPWGRVGFPSISPFRFPKEAASLFCEMFGGKPRNMVLSPEGEDQESLLQPDQPSPEFPFQYDPSYRSVQEIREHLRAKESTEPESSSCNCIQCELKIGSEEFEELLLLMEKIRDPFIHEISKIAMGMRSASQFTRDFIRDSGVVSLIETLLNYPSSRVRTSFLENMIRMAPPYPNLNIIQTYICKVCEETLAYSVDSPEQLSGIRMIRHLTTTTDYHTLVANYMSGFLSLLATGNAKTRFHVLKMLLNLSENLFMTKELLSAEAVSEFIGLFNREETNDNIQIVLAIFENIGNNIKKETVFSDDDFNIEPLISAFHKVEKFAKELQGKTDNQNDPEGDQEN", "modifications": "left off: large carriers; small tags and cut ends", "notes": "GFP-tagged version of cGASP1 stably overexpressed in HEK293 cells"}},
  "key": {"D MOR [1]": {"system": "D MOR", "test": "Agonist-induced downregulation of D MOR, radioligand binding", "assay_type": "cell-based", "conditions": "10 μM, 3 hours", "description": "(§1) Agonist-induced downregulation can be determined by any of a variety of methods, including those described herein. For example, cell surface receptors can be measured and/or receptor proteolysis or localization in lysozomes can be determined. Alternatively, receptor downregulation can be determined indirectly by measuring desensitization of receptors after activation with an agonist. Desensitization can be determined, for example, by measuring a biological effect that is mediated by the receptor. (See FIG. 1 for examples of each of these methods.) Generally, it will be most convenient to measure cell surface receptors using a radio- or immunoassay. An exemplary radioligand binding assay useful for determining agonist-induced downregulation is described in Example 1. (See FIG. 1A and Reference 16.) Briefly, cells expressing the cell surface receptor of interest are incubated with a suitable agonist under conditions designed to provide a saturating concentration of agonist over the incubation period. After agonist treatment, the cells are recovered and assayed for radioligand binding. […]\n(§2) (See 18 and 45 for the DOR and MOR expression constructs, respectively.) Cells were then chilled on ice, washed extensively and total opioid radioligand binding sites were determined for each cell line (16). […]"}, "MOR [2]": {"target": "T1, MOR (Mus musculus, UniProt P42866)", "test": "Agonist-induced downregulation of MOR, radioligand binding", "assay_type": "cell-based", "conditions": "10 μM, 3 hours", "description": "as §1, §2"}, "[3]": {"target": "epitope (FLAG)-tagged delta opioid receptor (DOR-1), full length, stably expressed in HEK293 cells (UniProt P32300)", "test": "co-immunoprecipitation: receptor immunoprecipitated, blotted for GASP1"}, "MOR [4]": {"target": "T1, MOR", "test": "Membrane adenylyl cyclase assay, MOR cells", "assay_type": "cell-based", "procedure": "(§3) 21. Membrane adenylyl cyclase assays were performed as previously described (9)."}, "MOR [5]": {"target": "T1, MOR", "test": "Colocalization of MOR with LAMP1 and LAMP2", "assay_type": "cell-based", "conditions": "5 μM, 90 min"}, "D MOR [6]": {"system": "D MOR", "test": "Membrane adenylyl cyclase assay, D MOR cells", "assay_type": "cell-based", "procedure": "as §3"}, "[7]": {"target": "T2, endogenous GASP1 binding to DOR (Mus musculus, UniProt P32300)", "T2 construct": "co-immunoprecipitated specifically with full length DOR but not with MOR expressed at similar levels; expressed in transfected cells; host or cells: HEK293 stably expressing DOR (GASP1 endogenous)", "test": "Competition with endogenous GASP1 for DOR binding in cells (co-immunoprecipitation)", "assay_type": "cell-based", "conditions": "overexpressed approximately 40 fold over endogenous GASP1", "procedure": "30. Assay for coimmunoprecipitation of cGASP1 with opioid receptors: Cells were grown to confluency, washed 2 times with PBS and lysed in 0.1% Triton X-100, 150 mM NaCl, 25 mM KCl, 10 mM Tris-HCl pH 7.4 containing 1 μM leupeptin, 1 μM pepstatin A, 1 μM aprotinin, 2.5 μM Pefabloc SC, and cell debris was removed by centrifugation at 10,000×g for 10 minutes at 4° C. An aliquot of lysate was removed for GASP1 control blot. Lysate was incubated with M2 affinity resin (Sigma) overnight. Pellets were extensively washed and incubated with PNGase (NEB) for 2 hours at 37° C. to degycosylate receptor protein. Samples were eluted in SDS sample buffer. For co-immunoprecipitation with endogenous GASP1, one fourth of eluate was separated by SDS-PAGE on a 12% gel (receptor blot), three quarters on a 7% gel (GASP1 blot). For co-immunoprecipitation with cGASP1 eluate was run on a 12% gel that was later cut and blotted separately for cGASP1 and receptor. Proteins were transferred to nitrocellulose. GASP1 blots were incubated for 2 hours with rabbit anti-GASP1 (1:4000). cGASP1 blots were incubated with rabbit anti-GFP antibodies for 2 hours (1:200) (Clonetech). Both were followed by 1 hour with horseradish peroxidase (HRP)-conjugated anti-rabbit antibody (NEB) (1:3000), and visualized with ECL plus (Amersham). […]"}, "B2AR-Ala": {"target": "T3, B2AR-Ala (Homo sapiens, UniProt P07550)", "T3 construct": "expressed in transfected cells", "test": "Co-immunoprecipitation with B2AR-Ala", "assay_type": "binding", "conditions": "cells stably expressing B2AR-Ala and GFP-cGASP1", "description": "The ability of GASP1 to bind to the B2AR tail in vitro was initially surprising, since the B2AR recycles efficiently after agonist-induced endocytosis and is relatively resistant to proteolysis in HEK293 cells (35). It has been shown previously that efficient recycling of the B2AR in these cells requires the actin cytoskeleton and a distinct set of protein interactions with the distal tip of the cytoplasmic tail (7). Adding a single alanine residue to the carboxyl terminus of the B2AR specifically disrupts this “recycling protein” interaction, creating a mutant B2AR (B2AR-Ala) that is sorted to lysosomes after agonist-induced endocytosis (7) (and see this study FIG. 5C) much like DOR (FIG. 1B). […] Consistent with this, GFP-cGASP1 co-immunoprecipited with B2AR-Ala (FIG. 5B) (30). Furthermore, overexpression of GFP-cGASP1 inhibited degradation of internalized B2AR-Ala (FIG. 5C), providing evidence for a functional role of the GASP1 protein interaction in lysosomal sorting of a non-opioid GPCR.\n30. Assay for coimmunoprecipitation of cGASP1 with opioid receptors: Cells were grown to confluency, washed 2 times with PBS and lysed in 0.1% Triton X-100, 150 mM NaCl, 25 mM KCl, 10 mM Tris-HCl pH 7.4 containing 1 μM leupeptin, 1 μM pepstatin A, 1 μM aprotinin, 2.5 μM Pefabloc SC, and cell debris was removed by centrifugation at 10,000×g for 10 minutes at 4° C. […]"}, "[8]": {"target": "epidermal growth factor (EGF) receptor (Homo sapiens, UniProt P00533)", "test": "EGFR assay, ligand-induced downregulation of EGF receptor", "assay_type": "cell-based", "conditions": "EGF 30 minutes or 3 hours", "procedure": "32. EGFR assay: Cells expressing only endogenous GASP1 and cells overexpressing GFP-cGASP1 (>40×) were grown to 80% confluency and treated with 5 μM EGF in DMEM for the indicated times or left untreated. Cells were washed with PBS, EGF receptor was immunoprecipitated with Rabbit anti EGFR-affinity resin (Santa Cruz Biotechnology), separated by SDS page and immunoblotted with goat anti-EGFR antibodies (Santa Cruz Biotechnology), followed by HRP-conjugated anti-goat secondary (Jackson Immunoresearch) and development with ECL reagents (Amersham)."}, "DOR": {"target": "T4, DOR (Mus musculus, UniProt P32300)", "T4 construct": "co-immunoprecipitated specifically with full length DOR but not with MOR expressed at similar levels; expressed in transfected cells", "test": "Biotin protection-degradation assay, endocytosed DOR", "assay_type": "cell-based", "conditions": "cells overexpressing cGASP1 vs DOR alone, agonist 3 hours", "procedure": "17. Biotin protection-degradation assay for proteolysis of surface-biotinylated receptors following endocytosis: Cells were grown to 80% confluency washed 2 times with cold phosphate buffered saline (PBS) then incubated in 3 μg/ml cleavable biotin (Pierce) in PBS at 4° C. for 30 minutes with gentle agitation. Cells were washed 2 times with Tris buffered saline and placed back into medium for treatment. Cells labeled “100% biotinylated” were left on ice in PBS. Cells labeled “100% stripped” were also left on ice in PBS then stripped as described below. Cells were treated with 5 μM agonist for 30 minutes or 3 hours, washed 2 times with cold PBS and the remaining cell surface biotinylated receptors were stripped in 50 mM glutathione, 0.3 M NaCl, 75 mM NaOH, 1% fetal bovine serum at 4° C. for 30 minutes. Glutathione was quenched with a 20 minute wash of PBS with 50 mM iodoacetamide, 1% bovine serum albumin. Cells were extracted in 0.1% Triton X-100, 150 mM NaCl, 25 mM KCl, 10 mM Tris-HCl pH 7.4 containing 1 μM leupeptin, 1 μM pepstatin A, 1 μM aprotinin, 2.5 μM Pefabloc SC, and cell debris was removed by centrifugation at 10,000×g for 10 minutes at 4° C. Receptors were immunoprecipitated using M2 antibody (Sigma), rabbit anti mouse linker (Jackson Immunoresearch) and protein A sepharose (Pharmacia) overnight. […]"}, "[9]": {"conditions": "agonist 3 hours, washout, 10 μM naloxone 30 minutes"}},
  "note": "Entries after “also recorded” stand apart in the source; their conditions may differ.",
  "data": [
    {"molecule": "CC(C)C[C@@H](NC(=O)[C@H](Cc1ccccc1)NC(=O)CNC(=O)[C@@H](C)NC(=O)[C@@H](N)Cc1ccc(O)cc1)C(=O)O", "note": "[DADLE, Tyr-D-Ala-Gly-Phe-D-Leu]", "values": [
      {"measurement": "agonist-induced downregulation of D MOR (total opioid radioligand binding sites)", "setting": "D MOR [1]", "result": "significant downregulation"},
      {"measurement": "agonist-induced downregulation of MOR (total opioid radioligand binding sites)", "setting": "MOR [2]", "result": "not substantially downregulated"}
    ]},
    {"molecule": "endogenous GASP1 of HEK293 cells", "values": [
      {"measurement": "percent of endogenous GASP1 immunoprecipitated with DOR", "setting": "[3]", "result": "< 1", "unit": "%"},
      {"measurement": "percent of total endogenous GASP1 coimmunoprecipitated with DOR", "setting": "[3]", "result": "< 1", "unit": "%"}
    ]},
    {"molecule": "C[C@@H](NC(=O)[C@@H](N)Cc1ccc(O)cc1)C(=O)NCC(=O)N(C)[C@@H](Cc1ccccc1)C(=O)NCCO", "note": "[DAMGO]", "values": [
      {"measurement": "desensitization of MOR", "setting": "MOR [4]; 5 μM, 10 minute exposure", "result": "Rapid desensitization"},
      {"measurement": "resensitization of MOR", "setting": "MOR [4]; [9]", "result": "recovered their ability to mediate agonist-dependent inhibition of adenylyl cyclase"},
      {"measurement": "colocalization of MOR with LAMP after agonist", "setting": "MOR [5]", "result": "not colocalized with LAMP"},
      {"measurement": "desensitization of D MOR", "setting": "D MOR [6]; 5 μM, 10 minute exposure", "result": "Rapid desensitization"},
      {"measurement": "resensitization of D MOR", "setting": "D MOR [6]; [9]", "result": "neither DOR nor D MOR resensitized significantly"}
    ]},
    {"molecule": "B1", "values": [
      {"measurement": "competition with endogenous GASP1 for binding to DOR in vivo", "setting": "[7]", "result": "substantially reduced the amount of endogenous GASP1 recovered in DOR immunoprecipitates; also recorded: competes with endogenous GASP1 for binding to DOR in vivo"},
      {"measurement": "binding to B2AR-Ala in vivo (co-immunoprecipitation)", "setting": "B2AR-Ala", "result": "binds in vivo"},
      {"measurement": "effect on downregulation of the EGF receptor", "setting": "[8]", "result": "unaffected"},
      {"measurement": "stability of endocytosed DOR (post-endocytic proteolysis)", "setting": "DOR", "result": "significantly more stable"}
    ]}
  ]
}
